According to US20060069095A1, “Azole derivatives” (priority 2004, published 2006):

Experiments:
A549-Cell-Xenograft = assay: In vivo assay on tumor inhibition (A549 xenograft); design: species or system mice; conditions: daily dosage of 80 mg/kg, oral, after 23 days of treatment (44 days of experiment), median tumor volume
Protocol: In vivo Assay on Tumor Inhibition:
To generate primary tumors, Non-Small-Cell Lung Cancer (NSCLC) (e.g. Calu-3 (ATTC HTB-55) or A549 (ATTC CCL-185)) cells (4-5.0×10^6 in a volume of 100 μl) are injected subcutaneously into the left flank of female SCID beige (Severe Combined Immunodeficient/beige mice available from Charles River, Sulzfeld, Germany) or BALB/c nude (BALB/c Nude Spontaneous Mutant Mice (homozygotes) available from Taconic Europe, Ry, Denmark) mice. The cells are thawed and expanded in vitro before use in the experiment. Mice are assigned to the treatment groups 14-21 days after cell injection. […] The subcutaneous primary tumors are measured twice weekly, starting prior to randomisation, in two dimensions (length and width) using an electronic caliper. The volume of the primary tumor is calculated using the formula: V[mm^3]=(length [mm]×width [mm]×width [mm])/2. In addition, the body weight of all animals is recorded at least twice weekly. […]
In one example of the above procedure, treatment was started on or about the 20th-21st day of the experiment (after cell injection) and the treatment was carried out for 23 days (about 44 days of experiment). In this example, primary tumor volume was calculated according to NCI protocol (TW=½ ab^2, where a and b were long and short diameters of tumor mass in mm). […] Tumor weight was determined by analytic scale at termination (day 44/45). […]

A549 cells = assay: MTT assay in A549 cells; format: cell-based, human; conditions: 5 days incubation, 3 μM to 0.15 nM
Protocol: To further show the activity of the compounds according to this invention, their effects on a […] was evaluated using a standard MTT-assay. MTT (3-(4,5-dimethylthiazol-2-yl)-2,5-diphenyl tetrazolium bromide) is widely used for the quantitative determination of cytotoxic effects or in vitro chemosensitivity of tumor cells. The assay is based on the cleavage of the yellow tetrazolium salt (MTT) to purple formazan crystals by metabolic active cells. For details, see Rubinstein, L. V., et al., J. Natl. Cancer Inst. 82 (1990) 1113-1118.
A549 cells (human lung carcinoma cell line ATTC-No. CCL-185) were cultivated in RPMI (Roswell Park Memorial Institute) 1640 medium with GlutaMAX™ I (Invitrogen, Cat-No. 61870-010), 2,5% Fetal Calf Serum (FCS, Sigma Cat-No. F4135 (FBS)); 100 Units/ml penicillin/100 μg/ml streptomycin (=Pen/Strep from Invitrogen Cat. No. 15140). For the assay the cells were seeded in 384 well plates, 900 cells per well, in the same medium. The next day compounds (dissolved 10 mM in dimethylsulfoxide (DMSO)) were added in various concentrations ranging from 3 μM to 0.15 nM (10 concentrations, 1:3 diluted). After 5 days MTT assay was done mainly according to the instructions of the manufacturer (Cell proliferation kit I, MTT, from Roche Molecular Biochemicals). In brief: MTT labeling reagent (3-(4,5-dimethylthiazol-2-yl)-2,5-diphenyltetrazolium bromide (MTT)) was added to a final concentration of 0.5 mg/ml, added and incubated for 4 hrs at 37° C., 5% CO2. During this incubation time purple formazan crystals are formed. After addition of the solubilization solution (20% Sodium Dodecyl Sulfate (SDS) in 0.02 M HCl) the plates were incubated overnight at 37° C., 5% CO2. After careful mixing plates were measured in Victor 2 scanning multiwell spectrophotometer (Wallac) at 550 nm.
A decrease in number of living cells results in a decrease in the total metabolic activity in the sample. The decrease directly correlates to the amount of purple color resulting from the solubilization of the purple formazan crystals.
• A549: 900 cells in 60 μl per well of 384 well plate (Greiner) • Medium: RPMI 1640, 2.5% FCS, glutamine, Pen/Strep. • Incubate 1 day at 37° C.
Induction: • Dilution of compound in DMSO: 3 μl 10 mM+27 μl DMSO, dilute 1:3 • Add 2 μl of compound dilution row to 95 μl of medium • Add 10 μl of compound dilution to 60 μl medium in test plate resulting in 0.3% DMSO per well • Incubate 120 h (5 days) at 37° C., 5% CO2
Analysis: • Add 7 μl MTT (5 mg/7 ml/well), incubate 4 h at 37° C. • Add 30 μl lysis buffer (20% SDS, 0.04 N HCl) per well • Incubate overnight at 37° C.
Measurement: • Victor 2 scanning multiwell spectrophotometer (Wallac) at 550 nm
Determination of IC50 was done using XL-fit (XLfit software (ID Business Solution Ltd., Guilford, Surrey, UK)).

| SMILES | Tumor Growth Inhibition (TGI) (A549-Cell-Xenograft) | IC50 (A549 cells) |
| --- | --- | --- |
| Cc1cc(OCc2coc(/C=C/c3ccc(OC(F)(F)F)cc3)n2)ccc1CCCCc1cnn(C)n1 [Example 3.2, 2-Methyl-4-[4-(2-methyl-4-{2-[(E)-2-(4-trifluoromethoxy-phenyl)-vinyl]-oxazol-4-ylmethoxy}-phenyl)-butyl]-2H-[1,2,3]triazole] | 72% |  |
| Cn1nncc1CCCCc1ccc(OCc2coc(/C=C/c3ccc(OC(F)(F)F)cc3)n2)cc1 [Example 1.2, Methyl-5-[4-(4-{2-[(E)-2-(4-trifluoromethoxy-phenyl)-vinyl]-oxazol-4-ylmethoxy}-phenyl)-butyl]-1H-[1,2,3]triazole] | 50% | 7 nM |
